Tests used:
Assay type in all cases: cell-based, human
[1] = test system: U2OS cells; assay: Cell count in U2OS Cell Painting images; settings: U2OS Cell Painting
Excerpt: (§1) Of these, analysis of the 220 constructs that were most closely representative of the annotated full-length transcripts was prioritized. […] Not all genes are likely to impact cellular morphology given the limitation of the experiment; using a single cell line at a single time point under a single set of conditions and stained with six fluorescent labels.
(§2) This standardization was done plate wise, based on the mean and standard deviation of the controls at profile level for the compound dataset. […] The signatures were then obtained by averaging the replicate profiles feature-wise. Pearson correlation was used on the aligned signatures of a gene and compound to score their connection.

[2] = test system: YAP1 overexpression in U2OS cells; assay: Cell Painting morphological profile matching to YAP1/TAZ overexpression signature; settings: Pearson correlation of Cell Painting signatures, U2OS cells
Excerpt: as §1
FIG. 2 provides an example characterization of matching the morphological signature of a gene query to the signature(s) of compounds in a library. Connections which show both positive and negative large correlations are considered as matches.
as §2

[3] = test system: TRAF2 overexpression in U2OS cells; assay: Cell Painting morphological profile matching to TRAF2 overexpression; settings: Pearson correlation of Cell Painting signatures, U2OS cells
Excerpt: as §1, §2

| Compound | Avg. Cell Count z-score [1] | Corr. to YAP1 cluster [2] | Corr. to TRAF2 [3] |
| --- | --- | --- | --- |
| N#Cc1nn(-c2c(Cl)cc(C(F)(F)F)cc2Cl)c(N)c1[S+]([O-])C(F)(F)F (stereo not drawn) [BRD-A50675702, 5-amino-1-[2,6-dichloro-4-(trifluoromethyl)phenyl]-4-(trifluoromethane)sulfinyl-1H-pyrazole-3-carbonitrile] | −0.1188 | 0.5102 | −0.4752 |
| Cc1ccc(S(=O)(=O)NC(=O)NN2CC3CCCC3C2)cc1 (stereo not drawn) [BRD-A61154809, 1-(3,3a,4,5,6,6a-hexahydro-1H-cyclopenta[c]pyrrol-2-yl)-3-(4-methylphenyl)sulfonylurea] | 0.8203 | 0.4401 | −0.3313 |
| CNC[C@@H]1Oc2c(NS(=O)(=O)c3ccc(F)cc3)cccc2C(=O)N([C@H](C)CO)C[C@H]1C [BRD-K00135177, 4-fluoro-N-[(2R,3R)-5-[(2R)-1-hydroxypropan-2-yl]-3-methyl-2-(methylaminomethyl)-6-oxo-3,4-dihydro-2H-1,5-benzoxazocin-10-yl]benzenesulfonamide] | 0.4009 | 0.5004 | −0.3649 |
| CN1c2cc3c(cc2N=C(c2ccc(C(=O)O)cc2)c2ccccc21)C(C)(C)CCC3(C)C [BRD-K06593056, 4-(5,7,7,10,10-pentamethyl-8,9-dihydronaphtho[2,3-b][1,4]benzodiazepin-13-yl)benzoic acid] | −0.7909 | 0.4357 | −0.4512 |
| O=C(C[C@H]1CC[C@H](NC(=O)CCN2CCCCC2)[C@@H](CO)O1)Nc1nccs1 [BRD-K11266478, N-[(2S,3S,6R)-2-(hydroxymethyl)-6-[2-oxo-2-(1,3-thiazol-2-ylamino)ethyl]oxan-3-yl]-3-piperidin-1-ylpropanamide] | 0.4851 | 0.4988 | −0.4398 |
| Clc1nc(NCc2ccccc2)c2ccccc2n1 [BRD-K11758216, N-benzyl-2-chloroquinazolin-4-amine] | −1.202 | 0.5078 | −0.4406 |
| C[C@H](CO)N1C[C@H](C)[C@H](CN(C)C)Oc2cc(C#Cc3ccccn3)ccc2S1(=O)=O [BRD-K13719685, (4S,5R)-5-((dimethylamino)methyl)-2-((R)-1-hydroxypropan-2-yl)-4-methyl-8-(pyridin-2-ylethynyl)-2,3,4,5-tetrahydrobenzo[b][1,4,5]oxathiazocine 1,1-dioxide] | 2.104 | −0.4426 | 0.3591 |
| COc1ccc(Cc2nccc3cc(OC)c(OC)cc23)cc1OC [BRD-K15567136, 1-[(3,4-dimethoxyphenyl)methyl]-6,7-dimethoxyisoquinoline] | −0.6568 | 0.4464 | −0.4936 |
| C[C@H]1CN([C@@H](C)CO)C(=O)CCCn2nncc2CO[C@H]1CN(C)C(=O)Nc1cccc(Oc2ccccn2)c1 [BRD-K19969618, 1-[[(8S,9R)-6-[(2S)-1-hydroxypropan-2-yl]-8-methyl-5-oxo-10-oxa-1,6,14,15-tetrazabicyclo[10.3.0]pentadeca-12,14-dien-9-yl]methyl]-1-methyl-3-(3-pyridin-2-yloxyphenyl)urea] | 0.7797 | 0.5483 | −0.4667 |
| CCCC(=O)Nc1ccc2c(c1)C(=O)N(C)C[C@H](OC)[C@H](C)CN(Cc1ccccc1)[C@@H](C)CO2 [BRD-K22754756, N-[(4S,7R,8R)-8-methoxy-4,7,10-trimethyl-11-oxo-5-(phenylmethyl)-2-oxa-5,10-diazabicyclo[10.4.0]hexadeca-1(12),13,15-trien-14-yl]butanamide] | −1.409 | 0.4966 | −0.297 |
| CO[C@H]1CN(C)C(=O)c2cc(NC(=O)C3CCCCC3)ccc2OC[C@@H](C)N(Cc2nccs2)C[C@@H]1C [BRD-K22874335, N-[(4R,7S,8R)-8-methoxy-4,7,10-trimethyl-11-oxo-5-(1,3-thiazol-2-ylmethyl)-2-oxa-5,10-diazabicyclo[10.4.0]hexadeca-1(12),13,15-trien-14-yl]cyclohexanecarboxamide] | −1.704 | 0.4904 | −0.362 |
| O=C(C[C@@H]1C[C@H]2c3cc(NC(=O)C4CCC4)ccc3O[C@H]2[C@H](CO)O1)NCc1ccccn1 [BRD-K28043081, N-[(1S,3S,4aS,9aR)-1-(hydroxymethyl)-3-[2-oxo-2-(pyridin-2-ylmethylamino)ethyl]-3,4,4a,9a-tetrahydro-1H-pyrano[3,4-b][1]benzofuran-6-yl]cyclobutanecarboxamide] | −0.5533 | 0.527 | −0.406 |
| O=C(NCC1CC1)[C@@H]1N[C@@H]2c3ccc(C4=CCCCC4)c(=O)n3C[C@@H]2[C@H]1CO [BRD-K37451830, (2R,3R,3aS,9bS)-7-(1-cyclohexenyl)-N-(cyclopropylmethyl)-3-(hydroxymethyl)-6-oxo-1,2,3,3a,4,9b-hexahydropyrrolo[2,3-a]indolizine-2-carboxamide] | −0.0043 | 0.4802 | −0.4167 |
| CCCNC(=O)N1[C@@H]2c3ccc(-c4ccccc4OC)c(=O)n3C[C@H]1[C@H](CO)[C@H]2C(=O)NCC [BRD-K39839146, (1S,9R,10R,11R)-11-N-ethyl-10-(hydroxymethyl)-5-(2-methoxyphenyl)-6-oxo-12-N-propyl-7,12-diazatricyclo[7.2.1.02,7]dodeca-2,4-diene-11,12-dicarboxamide] | 0.2185 | 0.4835 | −0.4284 |
| O=C(C[C@H]1C=C[C@@H](NC(=O)Nc2cc(F)ccc2F)[C@H](CO)O1)NCCCN1CCOCC1 [BRD-K40143134, 2-[(2R,3R,6S)-3-[[(2,5-difluoroanilino)-oxomethyl]amino]-2-(hydroxymethyl)-3,6-dihydro-2H-pyran-6-yl]-N-[3-(4-morpholinyl)propyl]acetamide] | −0.1148 | 0.5009 | −0.3428 |
| O=C(C[C@H]1CC[C@@H]2[C@H](COC[C@@H](O)CN2Cc2ccc3c(c2)OCO3)O1)N1CCCCC1 [BRD-K41723088, 2-[(3S,6aR,8R,10aR)-1-(1,3-benzodioxol-5-ylmethyl)-3-hydroxy-3,4,6,6a,8,9,10,10a-octahydro-2H-pyrano[2,3-c][1,5]oxazocin-8-yl]-1-piperidin-1-ylethanone] | −0.07095 | 0.4916 | −0.4389 |
| O=c1c(-c2ccc(O)cc2)coc2cc(O)ccc12 [BRD-K42095107, 7-hydroxy-3-(4-hydroxyphenyl)chromen-4-one] | −0.8813 | 0.4583 | −0.372 |
| CO[C@@H]1CN(C)C(=O)c2ccc(NC(=O)c3ccccc3F)cc2OC[C@H](C)N(CC2CC2)C[C@@H]1C [BRD-K42367391, N-[(5S,6S,9S)-8-(cyclopropylmethyl)-5-methoxy-3,6,9-trimethyl-2-oxo-11-oxa-3,8-diazabicyclo[10.4.0]hexadeca-1(12),13,15-trien-14-yl]-2-fluorobenzamide] | −0.9374 | 0.4887 | −0.2728 |
| O=C(Nc1ccncc1)Nc1c(Cl)cc(Cl)cc1Cl [BRD-K46678324, 1-pyridin-4-yl-3-(2,4,6-trichlorophenyl)urea] | −0.7252 | 0.4284 | −0.3397 |
| O=C(N[C@H]1CC[C@@H](CCNS(=O)(=O)c2ccc(F)cc2)O[C@H]1CO)C1CCOCC1 [BRD-K48052543, N-[(2R,3S,6S)-6-[2-[(4-fluorophenyl)sulfonylamino]ethyl]-2-(hydroxymethyl)oxan-3-yl]oxane-4-carboxamide] | 0.09801 | 0.5099 | −0.4132 |
| O=C(Nc1ccc2c(c1)[C@H]1C[C@@H](CC(=O)N3CCCCC3)O[C@@H](CO)[C@H]1O2)C1CCOCC1 [BRD-K62768599, N-[(1S,3S,4aR,9aS)-1-(hydroxymethyl)-3-[2-oxo-2-(1-piperidinyl)ethyl]-3,4,4a,9a-tetrahydro-1H-pyrano[3,4-b]benzofuran-6-yl]-4-oxanecarboxamide] | −0.7392 | 0.4883 | −0.5272 |
| COC(=O)C[C@H]1C[C@H]2c3cc(NS(=O)(=O)c4cccc(OC)c4)ccc3O[C@H]2[C@@H](CO)O1 [BRD-K68530167, 2-[(1R,3R,4aS,9aR)-1-(hydroxymethyl)-6-[(3-methoxyphenyl)sulfonylamino]-3,4,4a,9a-tetrahydro-1H-pyrano[3,4-b]benzofuran-3-yl]acetic acid methyl ester] | −0.1411 | 0.494 | −0.4619 |
| COc1cccc(S(=O)(=O)N2C[C@H](O)COC[C@@H]3O[C@H](CC(=O)N4CCN(c5ccccc5)CC4)CC[C@H]32)c1 [BRD-K70003473, 2-[(3S,6aR,8S,10aR)-3-hydroxy-1-(3-methoxyphenyl)sulfonyl-3,4,6,6a,8,9,10,10a-octahydro-2H-pyrano[2,3-c][1,5]oxazocin-8-yl]-1-(4-phenyl-1-piperazinyl)ethanone] | 0.5728 | −0.4195 | 0.3099 |

— patent publication US20230255970A1, “COMPOSITIONS AND METHODS FOR TREATING PROLIFERATIVE DISEASES” (The Broad Institute, Inc., priority 2020, published 2023)
